The results in this text go back to patent publication US12187709B2 (Genentech, Inc., priority 2021, dated 2025).

As usually defined, the IC50 is the concentration that inhibits the measured activity by half. High values mean weaker potency, low ones greater potency.

One experiment deals with c-Cbl (Homo sapiens (Human), UniProt P22681). As to the kind of experiment: C-Cbl LCK Ub TR-FRET assay (C-cbl Lck HTRF). In kind it is biochemical. The method, boiled down: (§1)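 Detection reagents added, brief spin, 20 min RT. IC50 fit normalized to no-LCK (low) and DMSO (high) controls.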
A further experiment addresses Cbl-b (Homo sapiens (Human), UniProt Q13191). As to the kind of experiment: Cbl-b LCK Ub TR-FRET assay (Cbl-b Lck HTRF). In kind it is biochemical. The conditions noted are these: for IC50: Cbl-b LCK Ub TR-FRET; for fold-selectivity (Cbl-b over C-cbl): ratio C-cbl Lck HTRF IC50 / Cbl-b Lck HTRF IC50. The method, boiled down: as §1
On the technique in general: TR-FRET usually uses a lanthanide donor and a delayed reading to cut background.

Chain of Cbl-b (Q13191 40-426): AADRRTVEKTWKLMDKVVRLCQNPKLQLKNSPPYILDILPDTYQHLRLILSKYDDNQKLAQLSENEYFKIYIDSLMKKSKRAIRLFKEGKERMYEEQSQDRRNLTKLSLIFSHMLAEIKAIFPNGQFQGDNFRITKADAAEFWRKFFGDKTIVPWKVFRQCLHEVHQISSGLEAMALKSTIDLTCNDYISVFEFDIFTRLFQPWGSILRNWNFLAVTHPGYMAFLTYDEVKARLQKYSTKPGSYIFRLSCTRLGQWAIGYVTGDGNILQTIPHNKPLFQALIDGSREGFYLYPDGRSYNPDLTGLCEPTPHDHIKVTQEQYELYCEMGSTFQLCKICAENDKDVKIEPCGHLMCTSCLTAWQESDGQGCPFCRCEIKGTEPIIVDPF
Chain of c-Cbl (P22681 47-435): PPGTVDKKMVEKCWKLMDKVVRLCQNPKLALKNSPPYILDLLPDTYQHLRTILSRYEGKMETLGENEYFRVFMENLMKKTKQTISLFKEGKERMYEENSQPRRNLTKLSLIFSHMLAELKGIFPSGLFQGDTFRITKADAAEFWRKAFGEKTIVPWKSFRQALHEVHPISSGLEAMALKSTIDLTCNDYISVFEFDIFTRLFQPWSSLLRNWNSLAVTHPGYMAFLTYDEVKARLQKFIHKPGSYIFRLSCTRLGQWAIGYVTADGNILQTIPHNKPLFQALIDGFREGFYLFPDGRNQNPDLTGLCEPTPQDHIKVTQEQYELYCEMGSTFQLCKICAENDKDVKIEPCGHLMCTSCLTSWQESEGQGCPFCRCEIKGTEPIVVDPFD

As to `Cn1cnnc1[C@@H](CC1CCCC1)c1cccc(N2Cc3c(cc(CNC4(C)CCC4)cc3C(F)(F)F)C2=O)c1` [Compound 248, (S)-2-(3-(2-cyclopentyl-1-(4-methyl-4H-1,2,4-triazol-3-yl)ethyl)phenyl)-6-(((1-methylcyclobutyl)amino)methyl)-4-(trifluoromethyl)isoindolin-1-one], the IC50 at c-Cbl is 2.1 µM. In addition, at Cbl-b, the IC50 was determined as 1.4 µM and the “fold-selectivity (Cbl-b over C-cbl)” value turned out to be 1.6x.

Turning to `Cn1cnnc1[C@@H](c1cccc(N2Cc3c(cc(CNC4(C)CCC4)cc3C(F)(F)F)C2=O)c1)C1CCCCC1` [Compound 250, (R)-2-(3-(cyclohexyl(4-methyl-4H-1,2,4-triazol-3-yl)methyl)phenyl)-6-(((1-methylcyclobutyl)amino)methyl)-4-(trifluoromethyl)isoindolin-1-one], the IC50 on c-Cbl turned out to be 3.6 µM; against Cbl-b, 3.1 µM. Besides, at Cbl-b, the “fold-selectivity (Cbl-b over C-cbl)” value is given as 1.2x.

On c-Cbl, `Cn1cnnc1[C@@H](CC1CCOCC1)c1cccc(N2Cc3c(cc(CNC4(C)CCC4)cc3C(F)(F)F)C2=O)c1` [Compound 253, (S)-2-(3-(1-(4-methyl-4H-1,2,4-triazol-3-yl)-2-(tetrahydro-2H-pyran-4-yl)ethyl)phenyl)-6-(((1-methylcyclobutyl)amino)methyl)-4-(trifluoromethyl)isoindolin-1-one] had an IC50 of 0.14 µM. Also, on Cbl-b, the IC50 was 0.12 µM and the “fold-selectivity (Cbl-b over C-cbl)” value is given as 1.1x.

Compound `Cn1cnnc1[C@H](CC1(C)COC1)c1cccc(N2Cc3c(cc(CNC4(C)CCC4)cc3C(F)(F)F)C2=O)c1` [Compound 254, (R)-2-(3-(1-(4-methyl-4H-1,2,4-triazol-3-yl)-2-(3-methyloxetan-3-yl)ethyl)phenyl)-6-(((1-methylcyclobutyl)amino)methyl)-4-(trifluoromethyl)isoindolin-1-one] came in with an IC50 against c-Cbl of 20 µM. On Cbl-b, the IC50 is not below 20 µM and the “fold-selectivity (Cbl-b over C-cbl)” value is 1.0x.

`Cn1cnnc1[C@@H](CC1(C)COC1)c1cccc(N2Cc3c(cc(CNC4(C)CCC4)cc3C(F)(F)F)C2=O)c1` [Compound 255, (S)-2-(3-(1-(4-methyl-4H-1,2,4-triazol-3-yl)-2-(3-methyloxetan-3-yl)ethyl)phenyl)-6-(((1-methylcyclobutyl)amino)methyl)-4-(trifluoromethyl)isoindolin-1-one] displayed an IC50 on c-Cbl of 0.99 µM. At Cbl-b, the IC50 amounted to 0.76 µM and the “fold-selectivity (Cbl-b over C-cbl)” value came out at 1.3x.

Regarding `Cn1cnnc1[C@H](CC1CCC1)c1cccc(N2Cc3c(cc(CNC4(C)CCC4)cc3C(F)(F)F)C2=O)c1` [Compound 268, (R)-2-(3-(2-cyclobutyl-1-(4-methyl-4H-1,2,4-triazol-3-yl)ethyl)phenyl)-6-(((1-methylcyclobutyl)amino)methyl)-4-(trifluoromethyl)isoindolin-1-one], the IC50 against c-Cbl was 2.7 µM; at Cbl-b, 1.7 µM. The “fold-selectivity (Cbl-b over C-cbl)” value at Cbl-b is 1.6x.

As for `Cn1cnnc1[C@@H](CC1CCC1)c1cccc(N2Cc3c(cc(CNC4(C)CCC4)cc3C(F)(F)F)C2=O)c1` [Compound 269, (S)-2-(3-(2-cyclobutyl-1-(4-methyl-4H-1,2,4-triazol-3-yl)ethyl)phenyl)-6-(((1-methylcyclobutyl)amino)methyl)-4-(trifluoromethyl)isoindolin-1-one], the IC50 at c-Cbl was 0.3 µM. In addition, at Cbl-b, 0.076 µM corresponded to half-maximal inhibition (IC50) and the “fold-selectivity (Cbl-b over C-cbl)” value turned out to be 4.0x.

`Cn1cnnc1[C@H](C[C@@H]1CCOC1)c1cccc(N2Cc3c(cc(CNC4(C)CCC4)cc3C(F)(F)F)C2=O)c1` [Compound 275, 2-(3-((R)-1-(4-methyl-4H-1,2,4-triazol-3-yl)-2-((R)-tetrahydrofuran-3-yl)ethyl)phenyl)-6-(((1-methylcyclobutyl)amino)methyl)-4-(trifluoromethyl)isoindolin-1-one]: the IC50 against c-Cbl was 20 µM. Besides, on Cbl-b, the IC50 was not below 20 µM and the “fold-selectivity (Cbl-b over C-cbl)” value was determined as 1.0x.

In the case of `Cn1cnnc1[C@@H](C[C@@H]1CCOC1)c1cccc(N2Cc3c(cc(CNC4(C)CCC4)cc3C(F)(F)F)C2=O)c1` [Compound 276, 2-(3-((S)-1-(4-methyl-4H-1,2,4-triazol-3-yl)-2-((R)-tetrahydrofuran-3-yl)ethyl)phenyl)-6-(((1-methylcyclobutyl)amino)methyl)-4-(trifluoromethyl)isoindolin-1-one], the IC50 at c-Cbl was 20 µM. At Cbl-b, the IC50 is not below 20 µM and the “fold-selectivity (Cbl-b over C-cbl)” value was 1.0x.

Turning to `C[C@@H](NC1(C)CCC1)c1cc2c(c(C(F)(F)F)c1)CN(c1cccc(C(c3nncn3C)C3COC3)c1)C2=O` (stereo partly drawn) [Compound 284, 2-(3-((4-methyl-4H-1,2,4-triazol-3-yl)(oxetan-3-yl)methyl)phenyl)-6-((R)-1-((1-methylcyclobutyl)amino)ethyl)-4-(trifluoromethyl)isoindolin-1-one], on c-Cbl, the IC50 turned out to be 3.7 µM. Further, at Cbl-b, the IC50 stood at 0.51 µM and the “fold-selectivity (Cbl-b over C-cbl)” value came out at 7.3x.

For `Cn1cnnc1[C@H](CC1CCS(=O)(=O)CC1)c1cccc(N2Cc3c(cc(CNC4(C)CCC4)cc3C(F)(F)F)C2=O)c1` [Compound 286, (R)-2-(3-(2-(1,1-dioxidotetrahydro-2H-thiopyran-4-yl)-1-(4-methyl-4H-1,2,4-triazol-3-yl)ethyl)phenyl)-6-(((1-methylcyclobutyl)amino)methyl)-4-(trifluoromethyl)isoindolin-1-one], on c-Cbl, the IC50 stood at 20 µM. In addition, on Cbl-b, the IC50 was not below 20 µM and the “fold-selectivity (Cbl-b over C-cbl)” value amounted to 1.0x.

On c-Cbl, `Cn1cnnc1[C@@H](CC1CCS(=O)(=O)CC1)c1cccc(N2Cc3c(cc(CNC4(C)CCC4)cc3C(F)(F)F)C2=O)c1` [Compound 287, (S)-2-(3-(2-(1,1-dioxidotetrahydro-2H-thiopyran-4-yl)-1-(4-methyl-4H-1,2,4-triazol-3-yl)ethyl)phenyl)-6-(((1-methylcyclobutyl)amino)methyl)-4-(trifluoromethyl)isoindolin-1-one] registered an IC50 of 20 µM. Also, on Cbl-b, the IC50 was not below 20 µM and the “fold-selectivity (Cbl-b over C-cbl)” value was 1.0x.

In turn, `Cn1cnnc1[C@@H](c1cccc(N2Cc3c(cc(CNC4(C)CCC4)cc3C(F)(F)F)C2=O)c1)C1CCOCC1` [Compound 290, (R)-2-(3-((4-methyl-4H-1,2,4-triazol-3-yl)(tetrahydro-2H-pyran-4-yl)methyl)phenyl)-6-(((1-methylcyclobutyl)amino)methyl)-4-(trifluoromethyl)isoindolin-1-one] showed an IC50 against c-Cbl of 20 µM. Also, at Cbl-b, the IC50 was 13 µM and the “fold-selectivity (Cbl-b over C-cbl)” value worked out at 1.5x.

As to `Cn1cnnc1[C@@H](C[C@@H]1COCCO1)c1cccc(N2Cc3c(cc(CNC4(C)CCC4)cc3C(F)(F)F)C2=O)c1` [Compound 296, 2-(3-((S)-2-((R)-1,4-dioxan-2-yl)-1-(4-methyl-4H-1,2,4-triazol-3-yl)ethyl)phenyl)-6-(((1-methylcyclobutyl)amino)methyl)-4-(trifluoromethyl)isoindolin-1-one], on c-Cbl, the IC50 amounted to 16 µM. Besides, at Cbl-b, half-maximal inhibition (IC50) required 8 µM and the “fold-selectivity (Cbl-b over C-cbl)” value amounted to 2.0x.

`Cn1cnnc1[C@@H](c1cccc(N2Cc3c(cc(CNC4(C)CCC4)cc3C(F)(F)F)C2=O)c1)C1CCS(=O)(=O)CC1` [Compound 299, (R)-2-(3-((1,1-dioxidotetrahydro-2H-thiopyran-4-yl)(4-methyl-4H-1,2,4-triazol-3-yl)methyl)phenyl)-6-(((1-methylcyclobutyl)amino)methyl)-4-(trifluoromethyl)isoindolin-1-one] registered an IC50 at c-Cbl of 3.8 µM. For the same compound, on Cbl-b, the IC50 was 2.5 µM and the “fold-selectivity (Cbl-b over C-cbl)” value came out at 1.5x.

Consider `Cn1cnnc1[C@H](c1cccc(N2Cc3c(cc(CNC4(C)CCC4)cc3C(F)(F)F)C2=O)c1)C1CCS(=O)(=O)CC1` [Compound 300, (S)-2-(3-((1,1-dioxidotetrahydro-2H-thiopyran-4-yl)(4-methyl-4H-1,2,4-triazol-3-yl)methyl)phenyl)-6-(((1-methylcyclobutyl)amino)methyl)-4-(trifluoromethyl)isoindolin-1-one], for which the IC50 at c-Cbl worked out at 17 µM. Also, on Cbl-b, 8.7 µM corresponded to half-maximal inhibition (IC50) and the “fold-selectivity (Cbl-b over C-cbl)” value amounted to 2.0x.

For `Cn1cnnc1[C@H](c1cccc(N2Cc3c(cc(CNC4(C)CCC4)cc3C(F)F)C2=O)c1)C1COC1` [Compound 304, (S)-4-(difluoromethyl)-2-(3-((4-methyl-4H-1,2,4-triazol-3-yl)(oxetan-3-yl)methyl)phenyl)-6-(((1-methylcyclobutyl)amino)methyl)isoindolin-1-one], at c-Cbl, it took 20 µM to reach half-maximal inhibition (IC50). Further, on Cbl-b, the IC50 turned out to be 7.8 µM and the “fold-selectivity (Cbl-b over C-cbl)” value came out at 2.6x.

On to `Cn1cnnc1[C@](C)(O)c1cccc(N2Cc3c(cc(CNC4(C)CCC4)cc3C(F)(F)F)C2=O)c1` [Compound 305, (R)-2-(3-(1-hydroxy-1-(4-methyl-4H-1,2,4-triazol-3-yl)ethyl)phenyl)-6-(((1-methylcyclobutyl)amino)methyl)-4-(trifluoromethyl)isoindolin-1-one], for which the IC50 against c-Cbl is 20 µM; against Cbl-b, not below 20 µM. Also, the “fold-selectivity (Cbl-b over C-cbl)” value at Cbl-b worked out at 1.0x.

On c-Cbl, `Cn1cnnc1[C@](O)(c1cccc(N2Cc3c(cc(CNC4(C)CCC4)cc3C(F)(F)F)C2=O)c1)C(F)(F)F` [Compound 307, (R)-6-(((1-methylcyclobutyl)amino)methyl)-2-(3-(2,2,2-trifluoro-1-hydroxy-1-(4-methyl-4H-1,2,4-triazol-3-yl)ethyl)phenyl)-4-(trifluoromethyl)isoindolin-1-one] displayed an IC50 of 12 µM. On Cbl-b, inhibition was half-maximal at 7.6 µM (IC50) and the “fold-selectivity (Cbl-b over C-cbl)” value came out at 1.5x.
